Measurements published in US20250144066A1, “Prevention and Treatment of Parasitic Infections” (priority 2017, published 2025).
pEC50: −log10 of the molar value. Values after ≈ are worked out from the molar mass of the structure shown. Like-named read-outs stand apart in the source and are kept apart here.

Experiments:
[1] = Toxicity in Vero 76 cells, primary screen (Zika-089); conditions: monkey
[2] = tested on: Rift Valley fever virus MP-12; assay: microbe, parasite or virus in culture; format: cell-based; conditions: for EC50: Rift Valley fever virus, Vero76
[3] = Neutral Red toxicity in Vero 76 cells, 24 h pre-incubation (Zika-138); conditions: monkey
[4] = RNA Hybridization toxicity in HG23 cells (16-21); format: cell-based; conditions: human, HG23 cells
From the text: (§1) Secondary testing was done with human norovirus.

[5] = NR toxicity in RAW264.7 cells (17-09); conditions: mouse
Zika Virus [6] = assay: Zika virus CPE inhibition (Neutral Red), Huh7, secondary (Zika-094); format: cell-based
[7] = Neutral Red toxicity in Huh7 cells, secondary (Zika-094); conditions: human
Zika Virus [8] = assay: Zika virus cytopathic effect (CPE) inhibition, Vero 76, primary screen (Zika-089); format: cell-based; conditions: for EC50: Zika virus, MR766, Vero 76, primary
[9] = tested on: human norovirus (NV, GT1); assay: Human norovirus replicon, RNA Hybridization, HG23, primary (16-21); format: cell-based
From the text: as §1

Lassa fever virus Josiah = assay: organism not typed; format: cell-based
[10] = Neutral Red toxicity in Huh7 cells, 24 h pre-incubation (Zika-138); conditions: human
[11] = tested on: Respiratory syncytial virus A2; assay: microbe, parasite or virus in culture; format: cell-based
Zika Virus [12] = assay: Zika virus yield reduction (VYR), Huh7, secondary (Zika-094); format: cell-based; conditions: Huh-7, Visual (Virus yield reduction), MR766
Adenovirus5 Adenoid75 = assay: Adenovirus 5 CPE inhibition, A549 (ADV-0172); format: cell-based; conditions: for EC50: Human mastadenovirus C, A549, read-out: EC50
Zika Virus [13] = assay: Zika prevention, CPE inhibition (Neutral Red), Vero 76, 4 h pre-incubation (Zika-138); format: cell-based; conditions: Zika virus, Neutral Red (Cytopathic effect), pre-incubated 4 hours prior to infection, read-out: EC50
mouse norovirus (MNV-1) = assay: Mouse norovirus CPE inhibition (NR), RAW264.7 (17-09); format: cell-based; conditions: Norovirus
[14] = Neutral Red toxicity in Vero 76 cells, 4 h pre-incubation (Zika-138); conditions: monkey
[15] = Neutral Red toxicity in Huh7 cells, 4 h pre-incubation (Zika-138); conditions: human
[16] = Neutral Red toxicity in Vero 76 cells, secondary (Zika-094); conditions: monkey
Zika Virus [17] = assay: Zika virus yield reduction (VYR), Vero 76, secondary (Zika-094); format: cell-based; conditions: Visual (Virus yield reduction), MR766
Powassan virus LB = assay: microbe, parasite or virus in culture; format: cell-based; conditions: for EC50: Powassan virus, BHK
in vitro [18] = conditions: dog
[19] = tested on: human norovirus (NV, GT1); assay: Human norovirus replicon, qPCR, HG23, secondary (17-14); format: cell-based; conditions: Norovirus
From the text: as §1

[20] = NR toxicity in HG23 cells (17-14); format: cell-based; conditions: human, HG23 cells, NR (Tox)
From the text: as §1

Zika Virus [21] = assay: Zika virus CPE inhibition (Neutral Red), Vero 76, secondary (Zika-094); format: cell-based; conditions: Neutral Red (Cytopathic effect), MR766
MDCK = conditions: Neutral Red (Toxicity)
[22] = Cell Titer-Glo toxicity in C-33A cells (HPV16-15); conditions: human
Zika Virus [23] = assay: Zika prevention, CPE inhibition (Neutral Red), Vero 76, 24 h pre-incubation (Zika-138); format: cell-based; conditions: Zika virus, Neutral Red (Cytopathic effect), pre-incubated 24 hours prior to infection, read-out: EC50
Zika Virus [24] = assay: Zika prevention, virus yield reduction (VYR), Huh7, 24 h pre-incubation (Zika-138); format: cell-based; conditions: for Virus Titer: 24 hr pre-incubation, Huh7 cells
Method: An experiment was carried out as specified in Example 8. In a Zika Prevention Trial, MPA was pre-incubated with human cells 4 hours or 24 hours before Zika virus infection.

Zika Virus [25] = assay: Zika prevention, virus yield reduction (VYR), Vero 76, 4 h pre-incubation (Zika-138); format: cell-based; conditions: Zika virus, Visual (Virus yield reduction), pre-incubated 4 hours prior to infection, read-out: EC90
[26] = tested on: Influenza A virus H1N1 California/07/2009; assay: microbe, parasite or virus in culture; format: cell-based
Zika Virus [27] = assay: Zika prevention, virus yield reduction (VYR), Vero 76, 24 h pre-incubation (Zika-138); format: cell-based; conditions: Zika virus, Visual (Virus yield reduction), pre-incubated 24 hours prior to infection, read-out: EC90
in vitro [28] = conditions: African green monkey
in vitro [29] = conditions: African green monkey; remark: listed apart in the source
[30] = Vero 76, Neutral Red (Cytopathic effect)
[31] = Vero 76, Visual (Cytopathic effect)

COc1c(C)c2c(c(O)c1C/C=C(\C)CCC(=O)O)C(=O)OC2 [EP1601, 6-(4-hydroxy-6-methoxy-7-methyl-3-oxo-1,3-dihydroisobenzofuran-5-yl)-4-methyl-hex-4-enoic acid]
CC50 ([1]; CC50, Neutral Red (Toxicity)): 14 µg/mL (≈ 43.7 µM)
CC50 ([1]; CC50, Visual (Toxicity)): > 100 µg/mL
activity against Rift Valley [2]: active
EC50 [2, 30]: 4 µg/mL (≈ 12.5 µM)
EC50 [2, 31]: 3.1 µg/mL (≈ 9.68 µM)
CC50 [3]: 37 µg/mL (≈ 116 µM)
CC50 [4]: > 100 µM
CC50 [5]: 32 µM
EC50 (Zika Virus [6]; Huh-7, Neutral Red (Cytopathic effect), MR766, Huh7, secondary): 0.14 µg/mL (≈ 0.437 µM)
EC50 (Zika Virus [6]; Huh-7, Zika virus, 'one of our tests' (test not specified), read-out: EC50): 0.049 µg/mL (≈ 0.153 µM)
CC50 [7]: 1.6 µg/mL (≈ 4.99 µM)
EC50 (Zika Virus [8]; [30]): 0.15 µg/mL (≈ 0.468 µM)
EC50 (Zika Virus [8]; [31]): < 0.1 µg/mL
activity against Zika Virus (Zika Virus [8]; three in vitro tests (Zika-A, Zika-B, Zika-C)): active
pEC50 ([9]; Norovirus, GT1, HG23): 6.82
EC90 ([9]; Norovirus, GT1, HG23): 1.3 µM
activity against Norovirus ([9]; three in vitro tests (human and mouse norovirus)): active
activity against Lassa Fever (Lassa fever virus Josiah): active
EC50 (Lassa fever virus Josiah; Vero): 0.2 µg/mL (≈ 0.624 µM)
CC50 [10]: 1.4 µg/mL (≈ 4.37 µM)
activity against Respiratory Syncytial Virus [11]: highly active
EC50 ([11]; human respiratory syncytial virus, MA104): < 0.1 µg/mL
EC90 (Zika Virus [12]): 0.088 µg/mL (≈ 0.275 µM)
activity against Adenovirus 5 (Adenovirus5 Adenoid75): active
EC50 (Adenovirus5 Adenoid75; A549, Neutral Red (Cytopathic effect)): 0.31 µg/mL (≈ 0.968 µM)
EC50 (Adenovirus5 Adenoid75; A549, Visual (Cytopathic effect)): 0.32 µg/mL (≈ 0.999 µM)
EC50 (Zika Virus [13]): > 100 µg/mL
pEC50 (mouse norovirus (MNV-1)): 6.91
EC90 (mouse norovirus (MNV-1)): 0.384 µM
CC50 [14]: > 100 µg/mL
CC50 [15]: > 100 µg/mL
CC50 [16]: 2.3 µg/mL (≈ 7.18 µM)
EC90 (Zika Virus [17]): 0.3 µg/mL (≈ 0.937 µM)
activity against Powassan (Powassan virus LB): active
EC50 (Powassan virus LB; Neutral Red (Cytopathic effect)): 0.36 µg/mL (≈ 1.12 µM)
EC50 (Powassan virus LB; Visual (Cytopathic effect)): 0.32 µg/mL (≈ 0.999 µM)
CC50 (in vitro [18]): > 100 µM
pEC50 [19]: 6.66
EC90 [19]: 1.1 µM
CC50 [20]: 64 µM
EC50 (Zika Virus [21]): 0.14 µg/mL (≈ 0.437 µM)
CC50 (MDCK): > 100 µM
CC50 [22]: > 150 µM
EC50 (Zika Virus [23]): 8 µg/mL (≈ 25 µM)
virus in VYR assay (Zika Virus [24]; Huh7 cells pre-incubated with drug for 24 hrs): reduced virus to zero
Virus Titer (Zika Virus [24]; MPA 0.1 μg/ml): 4.5 Log10 CCID50/0.1 ml
Virus Titer (Zika Virus [24]; MPA 1 μg/ml): 3.5 Log10 CCID50/0.1 ml
Virus Titer (Zika Virus [24]; MPA 10 μg/ml): <.67 Log10 CCID50/0.1 ml
Virus Titer (Zika Virus [24]; MPA 32 μg/ml): <.67 Log10 CCID50/0.1 ml
Virus Titer (Zika Virus [24]; MPA 100 μg/ml): <.67 Log10 CCID50/0.1 ml
EC90 (Zika Virus [24]; Zika virus, Huh-7, Visual (Virus yield reduction), Huh7, pre-incubated 24 hours prior to infection, read-out: EC90): 0.78 µg/mL (≈ 2.43 µM)
prevention of infection by Zika virus (Zika Virus [24]; given 24 hours before infection): completely prevent infection
EC90 (Zika Virus [25]): 17.8 µg/mL (≈ 55.6 µM)
activity against pandemic Influenza A H1N1 (California/07/2009) [26]: highly active
pEC50 ([26]; Influenza A virus, H1N1, MDCK): > 7.00
EC90 (Zika Virus [27]): 10 µg/mL (≈ 31.2 µM)
CC50 (in vitro [28]): > 100 µg/mL
CC50 (in vitro [29]): 26 µg/mL (≈ 81.2 µM)
